# Results from ChEMBL document CHEMBL1136728, “Antitumor activity of novel deoxoartemisinin monomers, dimers, and trimer” (J Med Chem, 2003).
# Legend:
# Type in all cases: functional, cell-based
# EL4 = assay: In vitro cytotoxicity of compound against EL4, mouse thymoma was defined by microculture tetrazolium assay
# MCF7 = assay: In vitro cytotoxicity of compound against MCF7, human breast cancer was defined by microculture tetrazolium assay
# BeWo = assay: In vitro cytotoxicity of compound against Bewo, human choriocarcinoma was defined by microculture tetrazolium assay
# HT-29 = assay: In vitro cytotoxicity of compound against HT29, human colorectal adenocarcinoma was defined by microculture tetrazolium assay
# P388 = assay: In vitro cytotoxicity of compound against P388, mouse […] leukemia was defined by microculture tetrazolium assay
SMILES,IC50 (EL4) [µg/mL],IC50 (MCF7) [µg/mL],IC50 (BeWo) [µg/mL],IC50 (HT-29) [µg/mL],IC50 (P388) [µg/mL]
C[C@H]1[C@@H](CCNC(=O)CC[C@H]2O[C@@H]3O[C@]4(C)CC[C@H]5[C@H](C)CC[C@@H]([C@H]2C)[C@]35OO4)O[C@@H]2O[C@]3(C)CC[C@H]4[C@H](C)CC[C@@H]1[C@]24OO3,6.29,0.005,7.5,0.69,10.4
C[C@H]1[C@@H](CCSCC[C@H]2O[C@@H]3O[C@]4(C)CC[C@H]5[C@H](C)CC[C@@H]([C@H]2C)[C@]35OO4)O[C@@H]2O[C@]3(C)CC[C@H]4[C@H](C)CC[C@@H]1[C@]24OO3,0.23,0.017,14.2,0.24,0.4
C[C@H]1[C@@H](CCS(=O)(=O)CC[C@H]2O[C@@H]3O[C@]4(C)CC[C@H]5[C@H](C)CC[C@@H]([C@H]2C)[C@]35OO4)O[C@@H]2O[C@]3(C)CC[C@H]4[C@H](C)CC[C@@H]1[C@]24OO3,0.54,0.025,1.04,0.38,5.6
C[C@H]1[C@@H](CCS(=O)(=O)CCCS(=O)(=O)CC[C@H]2O[C@@H]3O[C@]4(C)CC[C@H]5[C@H](C)CC[C@@H]([C@H]2C)[C@]35OO4)O[C@@H]2O[C@]3(C)CC[C@H]4[C@H](C)CC[C@@H]1[C@]24OO3,10,5.6,8.5,0.38,8.4
C[C@H]1[C@@H](CCCCNC(=O)CC[C@H]2O[C@@H]3O[C@]4(C)CC[C@H]5[C@H](C)CC[C@@H]([C@H]2C)[C@]35OO4)O[C@@H]2O[C@]3(C)CC[C@H]4[C@H](C)CC[C@@H]1[C@]24OO3,> 20,> 20,> 20,20.2,> 20
C[C@H]1[C@@H](CCCCN=[N+]=[N-])O[C@@H]2O[C@]3(C)CC[C@H]4[C@H](C)CC[C@@H]1[C@]24OO3,1.61,11.6,> 20,2.76,10.3
C[C@H]1[C@@H](CCCCN)O[C@@H]2O[C@]3(C)CC[C@H]4[C@H](C)CC[C@@H]1[C@]24OO3,5.63,0.02,> 20,2.2,6.18
C[C@H]1[C@@H](CCNC(=O)CC[C@H](N)C(=O)NCC[C@H]2O[C@@H]3O[C@]4(C)CC[C@H]5[C@H](C)CC[C@@H]([C@H]2C)[C@]35OO4)O[C@@H]2O[C@]3(C)CC[C@H]4[C@H](C)CC[C@@H]1[C@]24OO3,16.5,15.3,> 20,6.5,15.6
C[C@H]1[C@@H](CCNC(=O)CC[C@H](NC(=O)CC[C@H]2O[C@@H]3O[C@]4(C)CC[C@H]5[C@H](C)CC[C@@H]([C@H]2C)[C@]35OO4)C(=O)NCC[C@H]2O[C@@H]3O[C@]4(C)CC[C@H]5[C@H](C)CC[C@@H]([C@H]2C)[C@]35OO4)O[C@@H]2O[C@]3(C)CC[C@H]4[C@H](C)CC[C@@H]1[C@]24OO3,1.07,0.017,18.3,0.09,0.12
C[C@H]1[C@@H](CCC(=O)N[C@@H](CCC(=O)O)C(=O)O)O[C@@H]2O[C@]3(C)CC[C@H]4[C@H](C)CC[C@@H]1[C@]24OO3,> 20,13.4,> 20,8.6,> 20
COc1cccc2c1C(=O)c1c(O)c3c(c(O)c1C2=O)C[C@@](O)(C(=O)CO)C[C@@H]3O[C@H]1C[C@H](N)[C@H](O)[C@H](C)O1 [DOXORUBICIN],0.67,,6.24,0.1,0.39
CO[C@@]12[C@H](COC(N)=O)C3=C(C(=O)C(C)=C(N)C3=O)N1C[C@@H]1N[C@@H]12 [MITOMYCIN],3.94,0.93,0.85,0.02,1.5
CC(=O)O[C@H]1C(=O)[C@@]2(C)[C@H]([C@H](OC(=O)c3ccccc3)[C@]3(O)C[C@H](OC(=O)[C@H](O)[C@@H](NC(=O)c4ccccc4)c4ccccc4)C(C)=C1C3(C)C)[C@]1(OC(C)=O)CO[C@@H]1C[C@@H]2O [PACLITAXEL],1.34,,7.39,0.01,2.27
